Tests used:
Format in all cases: cell-based, human
Caco-2 [1] = assay: Hydrogen peroxide level, H2DCFDA probe; conditions: compound at IC50, 24 h, vs control
Method: (§1) Cellular H2O2 levels were assessed using 2′,7′-dichlorodihydrofluorescein diacetate (H2DCFDA, Sigma-Aldrich, St. Louis, MO, USA), a well-established fluorogenic probe for intracellular hydrogen peroxide detection. H2DCFDA readily diffuses across the cell membrane and is subsequently hydrolyzed by intracellular esterases to non-fluorescent H2DCF. Oxidation of H2DCF by ROS generates highly fluorescent 2′,7′-dichlorofluorescein (DCF), which accumulates in the cytosol. […] The fluorescence intensity of DCF is directly proportional to the concentration of ROS within the cell.
(§2) Cells were seeded in black 96-well fluorometric microplates at a density of 10 × 10^3 cells/mL. […] Following compound incubation, the medium was removed, and the cell monolayers were washed twice with HBSS (140 mM NaCl, 5 mM KCl, 0.8 mM MgCl2, 1.8 mM CaCl2, 1 mM Na2HPO4, 10 mM HEPES, and 1% glucose). A volume of 50 µL of H2DCFDA solution in HBSS (final concentration 5 μM) was added to each well, and the cells were incubated for 30 min in the dark at 37 °C. After incubation with the H2DCFDA, fluorescence measurements were conducted using a Perkin-Elmer LS-5B spectrofluorometer (MA, USA) at the following excitation and fluorescence emission wavelengths: λex = 498 nm/λem = 522 nm. The fluorescence intensity of control cells was arbitrarily assigned a value of 100%. The results were expressed as percentages of control, calculated by comparing the fluorescence intensity ratio of the test samples to controls (100%). The fluorescence of samples was denoted as Δf in relation to the control.

HT-29 = assay: Reactive nitrogen species level, DAF-FM probe; conditions: compound at IC50, 24 h
Method: (§3) Diaminofluorescein-FM diacetate (DAF-FM diacetate, Invitrogen, Carlsbad, CA, USA), a cell-permeable fluorescent probe, is widely utilized for the detection and quantification of reactive nitrogen species (RNS), primarily nitric oxide (NO). […] Upon interaction with NO, however, it undergoes a chemical transformation resulting in the formation of a highly fluorescent benzotriazole derivative with excitation and emission maxima at 495 and 515 nm, respectively.
as §2, with “[…] Fluorescence” for “A volume of 50 µL of H2DCFDA solution in HBSS (final concentration 5 μM) was added to each well, and the cells were incubated for 30 min in the dark at 37 °C. After incubation with the H2DCFDA, fluorescence”, “495” for “498”, “515” for “522”

SW620 = assay: Reactive nitrogen species level, DAF-FM probe; conditions: compound at IC50, 24 h
Method: as §3
as §2, with “[…] Fluorescence” for “A volume of 50 µL of H2DCFDA solution in HBSS (final concentration 5 μM) was added to each well, and the cells were incubated for 30 min in the dark at 37 °C. After incubation with the H2DCFDA, fluorescence”, “495” for “498”, “515” for “522”

Caco-2 [2] = assay: Intracellular GSH level, monochlorobimane (MCB) probe; conditions: compound at IC50, 24 h, vs control
Method: The spectrofluorimetric method with monochlorobimane (MCB; Sigma-Aldrich; St. Louis, MO, USA) was used to determine GSH. Monochlorobimane reacts with glutathione in a reaction catalyzed by cellular glutathione S-transferase. The reaction produces a fluorescent bimane-glutathione conjugate (GSH-MCB). A major advantage of MCB is its ability to penetrate the cell membrane, which is why it is used as a probe to determine the amount of GSH in living cells.
Cells were seeded in black 96-well fluorometric microplates at a density of 10 × 10^3 cells/mL. […] Following compound incubation, the medium was removed, and the cell monolayers were washed twice with HBSS (140 mM NaCl, 5 mM KCl, 0.8 mM MgCl2, 1.8 mM CaCl2, 1 mM Na2HPO4, 10 mM HEPES, and 1% glucose). A solution of MCB at a final concentration of 40 μM was added to each well and incubated in a CO2 cell culture incubator at 37 °C for 20 min. A 40 mM MCB stock solution was prepared by dissolving 9 mg of the reagent in 1 mL of absolute ethanol. Fluorescence was measured using a Perkin-Elmer LS-5B spectrofluorometer (Waltham, MA, USA) at the following excitation and fluorescence emission wavelengths: λex = 380 nm/λem = 470 nm. After incubation with MCB, the cells were lysed with 50 μL of lysis buffer (10 mM TRIS-HCl; pH 8 containing 0.1% Triton X-100). In order to normalize the number of cells in individual samples, the amount of DNA was determined by adding 50 μL of ethidium bromide (EB, final concentration 0.2 mM) to each well after measuring the MCB fluorescence and measuring the EB fluorescence at an excitation wavelength of λex = 530 nm and an emission wavelength of λem = 590 nm. The results obtained using the standard curve were converted to nM of GSH.

Caco-2 [3] = assay: Cell cycle analysis via flow cytometry (propidium iodide); conditions: compound at IC50, 24 h, vs control
Method: The most commonly used fluorescent dyes for cell cycle analysis are fluorochromes that penetrate the cell membrane into the interior of permeabilized cells and bind stoichiometrically to DNA via intercalation, e.g., DAPI, propidium iodide (PI). The analysis is performed on cells fixed in ethanol. In this work, the cell cycle analysis was performed using the method described by Darzynkiewicz and Juan.
Cells (10 × 10^3) were seeded in 35 mm dishes and cultured in the medium for 24 h to attain the logarithmic growth phase. […] Subsequently, cells were trypsinized and centrifuged for 10 min at 400× g at 4 °C. The cell suspension in 100 μL of PBS was fixed in 1 mL of 70% ethanol (−20 °C) and stored at this temperature until analysis. Immediately before analysis, the ethanol-fixed cell suspension was centrifuged at 10,000 rpm for 10 min at 4 °C. The pellet was washed with cold (4 °C) PBS to remove residual ethanol, and the cell suspension was centrifuged again under the same conditions. A volume of 300 μL of PBS containing 4 mg/mL propidium iodide (final concentration 75 μM) and 1 mg/mL RNAse A (final concentration 20 μg/mL) was added to the cell pellet and incubated for at least 30 min at 37 °C in the dark. Stained cells were analyzed using a flow cytometer (Becton Dickinson, Franklin Lakes, NJ, USA), counting 10,000 cells in each sample. Data were analyzed using FlowJo 10.10 software (FlowJo, Williamson Way Ashland, OR, USA).

colon cancer cells = assay: Reactive nitrogen species level, DAF-FM probe, all tested cell lines; conditions: any of the tested cell lines, compound at IC50, 24 h
Method: as §3
as §2, with “[…] Fluorescence” for “A volume of 50 µL of H2DCFDA solution in HBSS (final concentration 5 μM) was added to each well, and the cells were incubated for 30 min in the dark at 37 °C. After incubation with the H2DCFDA, fluorescence”, “495” for “498”, “515” for “522”

HCT 116 = assay: Hydrogen peroxide level, H2DCFDA probe; conditions: compound at IC50, 24 h
Method: as §1, §2

| SMILES | Increase in H2O2 levels (Caco-2 [1]) | Change in RNS levels (HT-29) | Change in RNS levels (SW620) | Decrease in GSH levels (Caco-2 [2]) | Increase in the G2/M phase cell percentage (Caco-2 [3]) | Change in RNS levels (colon cancer cells) | Effect on H2O2 levels (HCT 116) |
| --- | --- | --- | --- | --- | --- | --- | --- |
| O=C1/C(=C/c2ccccc2)COc2ccccc21 [Compound 1] | approximately 25% | significantly increased RNS levels | significantly increased RNS levels | 25–30% | 30% | – | – |
| COc1cccc(/C=C2/C(=O)c3ccccc3OC2c2ccccc2)c1 (centres unmarked) [Compound 3] | – | – | – | – | – | no significant changes | – |
| O=C1/C(=C/c2ccccc2)C(c2ccccc2)Oc2ccccc21 (centres unmarked) [Compound 5] | – | – | – | – | – | no significant changes | did not affect H2O2 levels |

Reference: PMC11641365, “Evaluation of In Vitro Biological Activity of Flavanone/Chromanone Derivatives: Molecular Analysis of Anticancer Mechanisms in Colorectal Cancer” (International Journal of Molecular Sciences, 2024)
